Experimental data: patent US20230111310A1, “CARBOXYLIC ACID DERIVATIVE-SUBSTITUTED IMINO ARYL COMPOUND, PREPARATION METHOD THEREFOR, HERBICIDAL COMPOSITION AND USE THEREOF” (Qingdao Kingagroot Chemical Compound Co., Ltd., priority 2020, published 2023)

Tests used:
Format in all cases: in vivo
Abutilon theophrasti [1] = assay: Weeding effect in post-emergence stage
Summary of the method: (§1)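 Read-out is growth control rate, counted 3 weeks post-spray and averaged over three repeats. Greenhouse plants at the 2-3 leaf stage received spray-tower application at 500, 250, 125, 60, 30, 15 or 7.5 g/ha, with methyl oleate EC (1.5 liter/ha) and Tween 80 added.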

Alopecurus japonicus = assay: Weeding effect in post-emergence stage
Summary of the method: as §1

Digitaria sanguinalis = assay: Weeding effect in post-emergence stage
Summary of the method: as §1

Eleusine indica = assay: Weeding effect in post-emergence stage
Summary of the method: as §1

Setaria viridis [2] = assay: Weeding effect in post-emergence stage
Summary of the method: as §1

Echinochloa crusgalli = assay: Weeding effect in post-emergence stage
Summary of the method: as §1

Abutilon theophrasti [3] = assay: Weeding effect in pre-emergence stage; details: 30 g/ha, 4 weeks
Summary of the method: (§2)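 Pots were kept in the greenhouse for 4 weeks and then rated for growth control on activity-level criteria. Spraying took place immediately after sowing at application rates of 500 to 7.5 g/ha, using an acetone/tween 80 formulation diluted with water, on seeds under 0.5-2 cm of soil.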

Amaranthus retroflexus = assay: Weeding effect in pre-emergence stage; details: 30 g/ha, 4 weeks
Summary of the method: as §2

Capsella bursa-pastoris = assay: Weeding effect in pre-emergence stage; details: 30 g/ha, 4 weeks
Summary of the method: as §2

Descurainia sophia = assay: Weeding effect in pre-emergence stage; details: 30 g/ha, 4 weeks
Summary of the method: as §2

Setaria viridis [4] = assay: Weeding effect in pre-emergence stage; details: 30 g/ha, 4 weeks
Summary of the method: as §2

Veronica didyma Tenore = assay: Weeding effect in pre-emergence stage; details: 30 g/ha, 4 weeks
Summary of the method: as §2

Peanut = assay: Pre-emergence stage, crop selectivity; details: 30 g/ha, 4 weeks
Summary of the method: as §2

Soybeans = assay: Pre-emergence stage, crop selectivity; details: 30 g/ha, 4 weeks
Summary of the method: as §2

corn = assay: Pre-emergence stage, crop selectivity; details: 30 g/ha, 4 weeks
Summary of the method: as §2

cotton = assay: Pre-emergence stage, crop selectivity; details: 30 g/ha, 4 weeks
Summary of the method: as §2

Leptochloa chinensis = assay: Weed control effect evaluation in rice field; details: rice field pot, 30 g/ha, 14 days after treatment
Source text: (§3) The activity level criteria for plant damage (i.e., growth control rate) are as follows:
(§4) Rice field soil was loaded into a 1/1,000,000 ha pot. The seeds of Echinochloa crusgalli. Scirpus juncoides. Bidens tripartita L., Monochoria vaginalis, and Leptochloa chinensis were sowed and gently covered with soil, then left to stand still in greenhouse in the state of 0.5-1 cm of water storage. The tuber of Sagittaria trifolia was planted in the next day or 2 days later. It was kept at 3-4 cm of water storage thereafter. The weeds were treated by dripping the WP or SC water diluents prepared according to the common preparation method of the compounds of the present invention with pipette homogeneously to achieve specified effective amount when Echinochloa crusgalli. Scirpus juncoides, Bidens tripartita L., Monochoria vaginalis, and Leptochloa chinensis reached 0.5 leaf stage and Sagittaria trifolia reached the time point of primary leaf stage.
(§5) The fertility condition of Echinochloa crusgalli. Scirpus juncoides. Bidens tripartita L., Monochoria vaginalis, Leptochloa chinensis and Sagittaria trifolia 14 days after the treatment of the compound of the invention and the fertility condition of rice 21 days after the treatment of the compound of the invention respectively with the naked eye. Evaluate the weed control effect with the above activity standard level. Many compounds show excellent activity and selectivity.

Monochoria vaginalis = assay: Weed control effect evaluation in rice field; details: rice field pot, 30 g/ha, 14 days after treatment
Source text: as §3, §4, §5

Scirpus juncoides = assay: Weed control effect evaluation in rice field; details: rice field pot, 30 g/ha, 14 days after treatment
Source text: as §3, §4, §5

Rice = assay: Transplanted rice safety evaluation; details: transplanted japonica rice, 30 g/ha, 21 days after treatment
Procedure: as §3
In addition, the rice field soil that loaded into the 1/1,000,000 ha pot was leveled to keep water storage at 3-4 cm depth. The 5 leaf stage rice (japonica rice) was transplanted at 3 cm of transplanting depth the next day. The compound of the present invention was treated by the same way after 5 days of transplantation.
as §5

[5] = Dose 30 g/ha, fresh weight control rate level
[6] = Dose 15 g/ha, level of fresh weight growth control rate

Compound | activity level (growth control rate) Abutilon theophrasti (Abutilon theophrasti [3]) | activity level (growth control rate) Amaranthus retroflexus (Amaranthus retroflexus) | activity level (growth control rate) Capsella bursa-pastoris (Capsella bursa-pastoris) | activity level (growth control rate) Descurainia sophia (Descurainia sophia) | activity level (growth control rate) Setaria viridis (Setaria viridis [4]) | activity level (growth control rate) Veronica didyma Tenore (Veronica didyma Tenore) | plant damage level Peanut (Peanut) | plant damage level Soybeans (Soybeans) | plant damage level Corn (corn) | plant damage level Cotton (cotton) | activity level (weed control effect) Leptochloa chinensis (Leptochloa chinensis) | activity level (weed control effect) Monochoria vaginalis (Monochoria vaginalis) | activity level (weed control effect) Scirpus juncoides (Scirpus juncoides) | plant damage level Rice (Rice) | also measured
C=CCOC(=O)C(C)(C)O/N=C/c1cc(-n2c(=O)cc(C(F)(F)F)n(C)c2=O)c(F)cc1Cl [Compound 434] | 5 (Level 5: growth control rate is above 85%) | 5 (Level 5: growth control rate is above 85%) | 5 (Level 5: growth control rate is above 85%) | 5 (Level 5: growth control rate is above 85%) | 5 (Level 5: growth control rate is above 85%) | 5 (Level 5: growth control rate is above 85%) | 0 (Level 0: growth control rate is less than 5%) | 0 (Level 0: growth control rate is less than 5%) | 0 (Level 0: growth control rate is less than 5%) | 0 (Level 0: growth control rate is less than 5%) | 5 (Level 5: growth control rate is above 85%) | 5 (Level 5: growth control rate is above 85%) | 5 (Level 5: growth control rate is above 85%) | 0 (Level 0: growth control rate is less than 5%) | Weeding effect in post-emergence stage, Abutilon theophrasti (level) (Abutilon theophrasti [1]; [5]): 5 (Level 5: growth control rate is above 85%); Weeding effect in post-emergence stage, Alopecurus japonicus (level) (Alopecurus japonicus; [5]): 5 (Level 5: growth control rate is above 85%); Weeding effect in post-emergence stage, Digitaria sanguinalis (level) (Digitaria sanguinalis; [5]): 5 (Level 5: growth control rate is above 85%); Weeding effect in post-emergence stage, Eleusine indica (level) (Eleusine indica; [5]): 5 (Level 5: growth control rate is above 85%); Weeding effect in post-emergence stage, Setaria viridis (level) (Setaria viridis [2]; [5]): 5 (Level 5: growth control rate is above 85%); Weeding effect in post-emergence stage, Echinochloa crusgalli (level) (Echinochloa crusgalli; [5]): 5 (Level 5: growth control rate is above 85%)
C#CCOC(=O)[C@@H](C)O/N=C/c1cc(-n2c(=O)cc(C(F)(F)F)n(C)c2=O)c(F)cc1Cl [212(R)] | 5 (Level 5: growth control rate is above 85%) | 5 (Level 5: growth control rate is above 85%) | 5 (Level 5: growth control rate is above 85%) | 5 (Level 5: growth control rate is above 85%) | 5 (Level 5: growth control rate is above 85%) | 5 (Level 5: growth control rate is above 85%) | 0 (Level 0: growth control rate is less than 5%) | 0 (Level 0: growth control rate is less than 5%) | 0 (Level 0: growth control rate is less than 5%) | 0 (Level 0: growth control rate is less than 5%) | 5 (Level 5: growth control rate is above 85%) | 5 (Level 5: growth control rate is above 85%) | 5 (Level 5: growth control rate is above 85%) | 0 (Level 0: growth control rate is less than 5%) | Weeding effect in post-emergence stage, Abutilon theophrasti (Abutilon theophrasti [1]; [6]): 5 (Level 5: growth control rate is above 85%); Weeding effect in post-emergence stage, Alopecurus japonicus (Alopecurus japonicus; [6]): 5 (Level 5: growth control rate is above 85%); Weeding effect in post-emergence stage, Digitaria sanguinalis (Digitaria sanguinalis; [6]): 5 (Level 5: growth control rate is above 85%); Weeding effect in post-emergence stage, Eleusine indica (Eleusine indica; [6]): 5 (Level 5: growth control rate is above 85%); Weeding effect in post-emergence stage, Setaria viridis (Setaria viridis [2]; [6]): 5 (Level 5: growth control rate is above 85%); Weeding effect in post-emergence stage, Echinochloa crusgalli (Echinochloa crusgalli; [6]): 5 (Level 5: growth control rate is above 85%)
